Data from PubChem BioAssay (NCI).
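Dose response: 5 concentrations. Exposure: 48 h. Format: 96-well plates. Endpoint: linear interpolation; highest concentration if not reached. Abbreviation: GI50, concentration required for 50% inhibition of growth. TGI denotes the concentration required for complete inhibition of growth.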

Assays:
Experiment in all cases: inhibition of tumour cell growth, NCI panel, 48 h
RPMI-8226 leukemia = tested on: RPMI-8226 leukemia
SNB-19 CNS = tested on: SNB-19 CNS
OVCAR-4 ovarian = tested on: OVCAR-4 ovarian
CCRF-CEM leukemia = tested on: CCRF-CEM leukemia
HOP-92 NSCLC = tested on: HOP-92 NSCLC
MALME-3M melanoma = tested on: MALME-3M melanoma
HS 578T breast = tested on: HS 578T breast
IGROV1 ovarian = tested on: IGROV1 ovarian
SW-620 colon = tested on: SW-620 colon
UO-31 renal = tested on: UO-31 renal
DU-145 prostate = tested on: DU-145 prostate
MDA-MB-231 breast = tested on: MDA-MB-231 breast
HOP-62 NSCLC = tested on: HOP-62 NSCLC
MOLT-4 leukemia = tested on: MOLT-4 leukemia
OVCAR-8 ovarian = tested on: OVCAR-8 ovarian
LOX IMVI melanoma = tested on: LOX IMVI melanoma
HCC-2998 colon = tested on: HCC-2998 colon
HT29 colon = tested on: HT29 colon
NCI-H226 lung = tested on: NCI-H226 lung
RXF 393 renal = tested on: RXF 393 renal
SK-MEL-5 melanoma = tested on: SK-MEL-5 melanoma
NCI-H23 lung = tested on: NCI-H23 lung
SK-MEL-28 melanoma = tested on: SK-MEL-28 melanoma
HCT-116 colon = tested on: HCT-116 colon
SF-295 CNS = tested on: SF-295 CNS
ACHN renal = tested on: ACHN renal
KM12 colon = tested on: KM12 colon
M14 melanoma = tested on: M14 melanoma
U251 CNS = tested on: U251 CNS
T-47D breast = tested on: T-47D breast
PC-3 prostate = tested on: PC-3 prostate
A498 renal = tested on: A498 renal
COLO 205 colon = tested on: COLO 205 colon
TK-10 renal = tested on: TK-10 renal
A549 NSCLC = tested on: A549 NSCLC
UACC-257 melanoma = tested on: UACC-257 melanoma
786-0 renal = tested on: 786-0 renal
MCF7 breast = tested on: MCF7 breast
K-562 leukemia = tested on: K-562 leukemia
SK-OV-3 ovarian = tested on: SK-OV-3 ovarian
NCI-H522 lung = tested on: NCI-H522 lung
OVCAR-5 ovarian = tested on: OVCAR-5 ovarian
NCI-H460 lung = tested on: NCI-H460 lung
HCT-15 colon = tested on: HCT-15 colon
SF-268 CNS = tested on: SF-268 CNS
UACC-62 melanoma = tested on: UACC-62 melanoma
SR leukemia = tested on: SR leukemia
OVCAR-3 ovarian = tested on: OVCAR-3 ovarian
NCI/ADR-RES ovarian = tested on: NCI/ADR-RES ovarian
CAKI-1 renal = tested on: CAKI-1 renal
MDA-MB-435 = tested on: MDA-MB-435
SNB-75 CNS = tested on: SNB-75 CNS
BT-549 breast = tested on: BT-549 breast
SN12C renal = tested on: SN12C renal
SF-539 CNS = tested on: SF-539 CNS
SK-MEL-2 melanoma = tested on: SK-MEL-2 melanoma

SMILES: O=C(Nc1ccc(OCc2nnc(-c3ccc(Cl)cc3)o2)c(F)c1)Nc1ccc(Cl)c(Cl)c1
- GI50 (RPMI-8226 leukemia): 10.7 µM
- TGI (RPMI-8226 leukemia): 56.6 µM
- GI50 (SNB-19 CNS): 5.97 µM
- TGI (SNB-19 CNS): 45.5 µM
- GI50 (OVCAR-4 ovarian): 2.99 µM
- TGI (OVCAR-4 ovarian): 14.1 µM
- GI50 (CCRF-CEM leukemia): 7.09 µM
- TGI (CCRF-CEM leukemia): 68.6 µM
- GI50 (HOP-92 NSCLC): 2.39 µM
- TGI (HOP-92 NSCLC): 8.27 µM
- GI50 (MALME-3M melanoma): 2.76 µM
- TGI (MALME-3M melanoma): 8.77 µM
- GI50 (HS 578T breast): 1.95 µM
- TGI (HS 578T breast): 8.53 µM
- GI50 (IGROV1 ovarian): 12.2 µM
- TGI (IGROV1 ovarian): 52.3 µM
- GI50 (SW-620 colon): 6.77 µM
- TGI (SW-620 colon): 67.9 µM
- GI50 (UO-31 renal): 13.5 µM
- TGI (UO-31 renal): 49.3 µM
- GI50 (DU-145 prostate): 5.07 µM
- TGI (DU-145 prostate): 21.3 µM
- GI50 (MDA-MB-231 breast): 5.39 µM
- TGI (MDA-MB-231 breast): 41.1 µM
- GI50 (HOP-62 NSCLC): 3.6 µM
- TGI (HOP-62 NSCLC): 19.5 µM
- GI50 (MOLT-4 leukemia): 12.9 µM
- TGI (MOLT-4 leukemia): 53.1 µM
- GI50 (OVCAR-8 ovarian): 8.56 µM
- TGI (OVCAR-8 ovarian): > 100 µM
- GI50 (LOX IMVI melanoma): 3.3 µM
- TGI (LOX IMVI melanoma): 13.2 µM
- GI50 (HCC-2998 colon): 20.7 µM
- TGI (HCC-2998 colon): > 100 µM
- GI50 (HT29 colon): 6.24 µM
- TGI (HT29 colon): > 100 µM
- GI50 (NCI-H226 lung): 5.94 µM
- TGI (NCI-H226 lung): 56.1 µM
- GI50 (RXF 393 renal): 6.78 µM
- TGI (RXF 393 renal): 24.2 µM
- GI50 (SK-MEL-5 melanoma): 6.6 µM
- TGI (SK-MEL-5 melanoma): 45.4 µM
- GI50 (NCI-H23 lung): 4.62 µM
- TGI (NCI-H23 lung): 20.6 µM
- GI50 (SK-MEL-28 melanoma): 5.17 µM
- TGI (SK-MEL-28 melanoma): 28.6 µM
- GI50 (HCT-116 colon): 5.01 µM
- TGI (HCT-116 colon): > 100 µM
- GI50 (SF-295 CNS): 3.63 µM
- TGI (SF-295 CNS): 19.5 µM
- GI50 (ACHN renal): 4.95 µM
- TGI (ACHN renal): 62.6 µM
- GI50 (KM12 colon): 16.5 µM
- TGI (KM12 colon): > 100 µM
- GI50 (M14 melanoma): 11.3 µM
- TGI (M14 melanoma): > 100 µM
- GI50 (U251 CNS): 4.08 µM
- TGI (U251 CNS): 25 µM
- GI50 (T-47D breast): 2.83 µM
- TGI (T-47D breast): 26.5 µM
- GI50 (PC-3 prostate): 6.16 µM
- TGI (PC-3 prostate): 29.9 µM
- GI50 (A498 renal): 1.56 µM
- TGI (A498 renal): 21.9 µM
- GI50 (COLO 205 colon): 6.94 µM
- TGI (COLO 205 colon): > 100 µM
- GI50 (TK-10 renal): 4.78 µM
- TGI (TK-10 renal): 22.9 µM
- GI50 (A549 NSCLC): 6.07 µM
- TGI (A549 NSCLC): 47.1 µM
- GI50 (UACC-257 melanoma): 10.6 µM
- TGI (UACC-257 melanoma): > 100 µM
- GI50 (786-0 renal): 12.5 µM
- TGI (786-0 renal): 42.7 µM
- GI50 (MCF7 breast): 5.62 µM
- TGI (MCF7 breast): > 100 µM
- GI50 (K-562 leukemia): 3.77 µM
- TGI (K-562 leukemia): > 100 µM
- GI50 (SK-OV-3 ovarian): 9.09 µM
- TGI (SK-OV-3 ovarian): 40.6 µM
- GI50 (NCI-H522 lung): 6.06 µM
- TGI (NCI-H522 lung): 52.1 µM
- GI50 (OVCAR-5 ovarian): 22.5 µM
- TGI (OVCAR-5 ovarian): > 100 µM
- GI50 (NCI-H460 lung): 3.9 µM
- TGI (NCI-H460 lung): 25 µM
- GI50 (HCT-15 colon): 15 µM
- TGI (HCT-15 colon): > 100 µM
- GI50 (SF-268 CNS): 7.58 µM
- TGI (SF-268 CNS): 35.8 µM
- GI50 (UACC-62 melanoma): 5.84 µM
- TGI (UACC-62 melanoma): 39 µM
- GI50 (SR leukemia): 2.09 µM
- TGI (SR leukemia): 7.57 µM
- GI50 (OVCAR-3 ovarian): 10.7 µM
- TGI (OVCAR-3 ovarian): 35 µM
- GI50 (NCI/ADR-RES ovarian): 10 µM
- TGI (NCI/ADR-RES ovarian): 41.3 µM
- GI50 (CAKI-1 renal): 21.7 µM
- TGI (CAKI-1 renal): > 100 µM
- GI50 (MDA-MB-435): 9.55 µM
- TGI (MDA-MB-435): > 100 µM
- GI50 (SNB-75 CNS): 1.72 µM
- TGI (SNB-75 CNS): 4.88 µM
- GI50 (BT-549 breast): 7.11 µM
- TGI (BT-549 breast): 29.7 µM
- GI50 (SN12C renal): 11.3 µM
- TGI (SN12C renal): > 100 µM
- GI50 (SF-539 CNS): 6.92 µM
- TGI (SF-539 CNS): 27.7 µM
- GI50 (SK-MEL-2 melanoma): 9.23 µM
- TGI (SK-MEL-2 melanoma): 37 µM
